Experiments:
MAO-A = target: T1, MAO-A (Homo sapiens, UniProt P21397); experiment: Decrease of plasma DHPG in patients (HPLC analysis of MAO-A inhibition); assay type: in vivo
T1 construct: from tissue; host or cells: patients in vivo; DHPG measured in plasma
T1 sequence (P21397 1-527): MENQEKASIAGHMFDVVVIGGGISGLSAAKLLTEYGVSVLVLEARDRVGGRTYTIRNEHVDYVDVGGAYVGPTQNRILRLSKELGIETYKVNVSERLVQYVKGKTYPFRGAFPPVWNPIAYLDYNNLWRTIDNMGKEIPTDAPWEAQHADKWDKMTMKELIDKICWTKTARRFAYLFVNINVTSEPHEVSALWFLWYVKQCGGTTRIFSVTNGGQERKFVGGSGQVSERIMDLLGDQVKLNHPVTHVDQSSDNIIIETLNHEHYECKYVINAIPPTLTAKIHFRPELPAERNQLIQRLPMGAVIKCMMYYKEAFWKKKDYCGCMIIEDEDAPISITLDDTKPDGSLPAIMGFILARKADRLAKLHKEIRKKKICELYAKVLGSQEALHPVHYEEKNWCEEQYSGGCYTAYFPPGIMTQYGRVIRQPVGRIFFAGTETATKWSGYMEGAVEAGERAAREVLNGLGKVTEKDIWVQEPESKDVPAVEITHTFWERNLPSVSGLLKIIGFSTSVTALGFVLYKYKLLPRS
Description: 8 patients, 7 female and 1 male, ages 62-81 with a median age of 68 and above with diagnosis of probable Alzheimer's disease according to DSM-IV (290.00 or 290.10) and NINCDS-ADRDA criteria were administered ladostigil tartrate according to the following schedule:
Decrease of 3,4-dihydroxyphenylglycol (“DHPG”) in plasma is indicative of monoamine oxidase inhibition, especially in the brain. DHPG plasma concentrations were measured in 6 of the aforementioned patients at baseline and at termination analysis, using HPLC equipped with an electrochemical detector.
The decrease in DHPG concentration in the six patients was determined. The average decrease in DHPG concentration was determined to be 57% with a standard deviation of 29.

Cholinesterase = Cholinesterase inhibition in patients at pre-dose; assay type: in vivo, human; conditions: at maintenance and at termination analyses
Description: 8 patients, 7 female and 1 male, ages 62-81 with a median age of 68 and above with diagnosis of probable Alzheimer's disease according to DSM-IV (290.00 or 290.10) and NINCDS-ADRDA criteria were administered ladostigil tartrate according to the following schedule: […]

clinical = conditions: human, in vivo; for Cmax / AUC / AUC(0-t): 100 mg, after ladostigil tartrate 100 mg twice daily; for AUC: AUC (M)

In the case of `C#CCN[C@@H]1CCc2ccc(OC(=O)N(C)CC)cc21` [ladostigil, R(+)-6-(N-methyl, N-ethyl-carbamoyloxy)-N′-propargyl-1-aminoindan], the “DHPG (T)” value (MAO-A; Patient 1, termination analysis Week 9 vs baseline) is reported as −63%, the “DHPG (T)” value (MAO-A; Patient 2, termination analysis Week 9 vs baseline) is reported as −86% and the “DHPG (T)” value (MAO-A; Patient 5, termination analysis Week 9 vs baseline) is reported as >−79%. For the same compound, the “DHPG (T)” value (MAO-A; Patient 6, termination analysis Week 9 vs baseline) was −73%, the “DHPG (T)” value (MAO-A; Patient 7, termination analysis Week 9 vs baseline) was −30% and the “DHPG (T)” value (MAO-A; Patient 8, termination analysis Week 9 vs baseline) was −13%. For the same compound, the “Cholinesterase inhibition at pre-dose, in words” value (Cholinesterase) was “evident”, the half-life (clinical; both) was 1.08 h and the Cmax (clinical; both, Cmax (M), mean, mean of patients, maintenance analysis Week 4) was 2.02e-06 M. For the same compound, the Cmax (clinical; both, Cmax (T), mean, mean of patients, termination analysis Week 9) was 1.88e-06 M, the AUC (clinical; Patient 1, maintenance analysis Week 4) was 314 ng·h/mL and the AUC (clinical; Patient 2, maintenance analysis Week 4) was 589 ng·h/mL. The AUC (clinical; Patient 3, maintenance analysis Week 4) was 1000 ng·h/mL, the AUC (clinical; Patient 4, maintenance analysis Week 4) was 927 ng·h/mL and the AUC (clinical; Patient 5, maintenance analysis Week 4) was 436 ng·h/mL. It also gave an AUC (clinical; Patient 6, maintenance analysis Week 4) of 551 ng·h/mL, an AUC (clinical; Patient 7, maintenance analysis Week 4) of 52 ng·h/mL and an AUC (clinical; Patient 8, maintenance analysis Week 4) of 500 ng·h/mL. The AUC(0-t) (clinical; Patient 1, termination analysis Week 9) was 246 ng·h/mL, the AUC(0-t) (clinical; Patient 2, termination analysis Week 9) was 2300 ng·h/mL and the AUC(0-t) (clinical; Patient 3, termination analysis Week 9) was 1450 ng·h/mL. For the same compound, the AUC(0-t) (clinical; Patient 4, termination analysis Week 9) was 482 ng·h/mL, the AUC(0-t) (clinical; Patient 5, termination analysis Week 9) was 398 ng·h/mL and the AUC(0-t) (clinical; Patient 6, termination analysis Week 9) was 901 ng·h/mL. It also gave an AUC(0-t) (clinical; Patient 7, termination analysis Week 9) of 118 ng·h/mL, an AUC(0-t) (clinical; Patient 8, termination analysis Week 9) of 350 ng·h/mL and a Cmax (clinical; Cmax (M), Patient 1, maintenance analysis Week 4) of 1.1e-06 M. It also gave a Cmax (clinical; Cmax (M), Patient 2, maintenance analysis Week 4) of 1.2e-06 M, a Cmax (clinical; Cmax (M), Patient 3, maintenance analysis Week 4) of 3.5e-06 M and a Cmax (clinical; Cmax (M), Patient 4, maintenance analysis Week 4) of 3.9e-06 M. The Cmax (clinical; Cmax (M), Patient 5, maintenance analysis Week 4) was 1.4e-06 M, the Cmax (clinical; Cmax (M), Patient 6, maintenance analysis Week 4) was 1.5e-06 M and the Cmax (clinical; Cmax (M), Patient 7, maintenance analysis Week 4) was 2e-07 M. It also gave a Cmax (clinical; Cmax (M), Patient 8, maintenance analysis Week 4) of 1.7e-06 M, a Cmax (clinical; Cmax (T), Patient 1, termination analysis Week 9) of 7e-07 M and a Cmax (clinical; Cmax (T), Patient 2, termination analysis Week 9) of 3.8e-06 M. For the same compound, the Cmax (clinical; Cmax (T), Patient 3, termination analysis Week 9) was 3.9e-06 M, the Cmax (clinical; Cmax (T), Patient 4, termination analysis Week 9) was 1.6e-06 M and the Cmax (clinical; Cmax (T), Patient 5, termination analysis Week 9) was 1e-06 M. It also gave a Cmax (clinical; Cmax (T), Patient 6, termination analysis Week 9) of 2.5e-06 M, a Cmax (clinical; Cmax (T), Patient 7, termination analysis Week 9) of 4e-07 M and a Cmax (clinical; Cmax (T), Patient 8, termination analysis Week 9) of 1.3e-06 M.

Source: US8609719B2, “Propargylated aminoindans, processes for preparation, and uses thereof” (priority 2006, dated 2013)
